The subject of one assay is TNF-[…]. The assay is described as follows: kavain analog screening assay, TNF inhibition in BMM infected with P. gingivalis. The format is cell-based, murine. Here is the method: (§1) To identify compounds with strong anti-inflammatory properties, kavain analogs were tested in a screening assay based on TNF-[…] inhibition in BMM infected with P. gingivalis (FIG. 1B). This screen identified Kava-205Cl (5,5-dimethyl-3-oxocyclohex-1-en-1-yl 4-chlorobenzoate) and its methylated analog Kava-205Me (5,5-dimethyl-3-oxocyclohex-1-en-1-yl 4-methylbenzoate) (FIG. 1B) as effective inhibitors of TNF-[…] secretion (z=−0.99 and z=−1.07 respectively).

Assay [1] relates to IL-12, IFN-γ, MIP-1β, RANTES, IL-10, G-CSF and eotaxin. Put plainly: multiplex analysis of chemokines and cytokines from BMM exposed to P. gingivalis. Type of assay: cell-based, murine. Here is the method: (§2) See Amar, Salomon et al., Identification of a Kavain Analog with Efficient Anti-inflammatory Effects, [Currently unpublished], 2019. (Incorporated by reference in its entirety, herein). Specifically, in an in vitro assay of anti-inflammatory effects, murine macrophages (BMM) and THP-1 cells were infected with P. gingivalis (MOI=20:1) and a panel of cytokines were measured.
(§3) P. gingivalis is able to induce sustained recruitment of immune cells such a neutrophils and T-lymphocytes, whose presence is associated with excessive inflammation and tissue destruction at infectious sites. To evaluate the effect of Kava-205Me on the secretion of chemokines and cytokines from BMM exposed to P. gingivalis, a multiplex analysis was performed that compared P. gingivalis infected cells with and without treatment with Kava-205Me. […] Moreover, the gene expression of ACP5, an osteoclast specific gene, was evaluated in BMM infected with P. gingivalis with or without Kava-205Me treatment.

The test system of assay [2] is infective arthritis (collagen-antibody + P. gingivalis). The assay is described as follows: infective arthritis murine model, P. gingivalis and AB peritoneal injection (Kava-205Me). Type of assay: in vivo, mice. Here is the method: as §2
To evaluate the systemic effect of Kava-205Me, an infective arthritis was induced in mice by the combined insults of P. gingivalis and AB peritoneal injection. After 10 days, significant paw swelling was observed, confirming the establishment of joint inflammation and a destructive process (FIG. 5). […] This anti-inflammatory effect was confirmed histologically (FIG. 5C).

In assay [3] the test system is TNF-α. The assay is described as follows: TNF-α secretion, dose-response in BMM infected with P. gingivalis. Type of assay: cell-based, murine. Here is the method: as §2, §1
Another assay concerns ACP5. The assay is described as follows: ACP5 gene expression in BMM infected with P. gingivalis. The format is cell-based, murine. As to the method: as §3
In assay [4] the test system is P. gingivalis-induced calvarial destruction. The assay is described as follows: acute model of P. gingivalis-induced calvarial destruction. The format is in vivo. As to the method: as §2
In an acute model of P. gingivalis infection, Kava-205Me was administered to evaluate its anti-inflammatory and pro-healing properties in vivo. In this calvarial model, injection of P. gingivalis induced formation of a cutaneous abscess characterized by dermal inflammation and bone destruction (FIG. 4).

Assay [5] concerns TNF-α. Put plainly: TNF-α secretion, dose-response in THP-1 infected with P. gingivalis. The format is cell-based, human. As to the method:
as §2, §1

Assay [6] deals with TNF-α. The settings on record: Escherichia coli LPS-stimulated RAW cells; cited from earlier work.
In assay [7] the test system is infective arthritis (P. gingivalis + ArthritoMab antibody cocktail). The assay is described as follows: infective arthritis murine model triggered by P. gingivalis and primed with collagen antibody cocktail (Kava-241). The conditions noted are these: CIA cocktail, treated concomitantly. The format is in vivo, DBA1/BO male mice. The text has this:
Kava-241 (I-BC-241) is a compound derived from kavain and has been synthesized as described previously. In this example, we evaluated the systemic and articular effects Kava-241 in an infective arthritis murine model triggered by P. gingivalis bacterial inoculation and primed with collagen antibody cocktail (CIA) to induce joint inflammation and tissular destruction. Arthritis was induced in twenty-eight six-week-old, pathogen-free DBA1/BO male mice by two consecutive injections of ArthritoMab (AB) Antibody cocktail (CIA-MAB-2C, MD Bioproducts, Oakdale, MN, USA), the first injection of 7 mg at baseline, followed by a second injection of 4 mg at day 5. For P. gingivalis injected groups, 3 intraperitoneal injections of 5.10^8 bacteria/100 μl were performed at days 2, 8 and 11. Mice were sacrificed after 17 days. Clinical inflammation score and radiological analysis of the paws were performed continuously while histological assessment was obtained at sacrifice. Forepaws were evaluated to score arthritis using a visual qualitative assessment scoring as follows: 0) no paw swelling, 1) mild swelling, 2) moderate swelling, 3) severe swelling (22). Inflammation was also evaluated with X-rays examination.

In assay [8] the test system is TNF-α. Put plainly: serum TNF-α in mice injected with P. gingivalis-lipopolysaccharide. The settings on record: mice injected with TLR 2/4 ligand P. gingivalis-LPS. The format is in vivo.
Assay [9] deals with P. gingivalis+ type II collagen antibody induced periodontitis. The conditions noted are these: P. gingivalis induced PD in a collagen antibody primed mouse model; cited from earlier work.
Assay [10] shares this test system. Put plainly: collagen antibody primed oral gavage model of periodontitis. Type of assay: in vivo, mice. As to the method: The effect of Kava-241 on periodontal destruction in a collagen antibody primed oral gavage model of periodontitis was evaluated. In this example, experimental periodontitis was induced by oral gavage of P. gingivalis+ type II collagen antibody (AB) in mice during 15 days. Mice were treated with Kava-241 concomitantly or prior to P. gingivalis gavage and compared to untreated mice. Comprehensive histomorphometric analyses were performed. […] The Kava-241 effect was associated with a reduction in inflammatory cell counts within soft tissues and an increase in fibroblasts.

Assay [11] deals with TLR-2/4, MAPKs related signal elements, LITAF. Put plainly: signalling in bone-marrow derived macrophages infected with P. gingivalis. The format is cell-based, murine. The settings on record: BMM infected with P. gingivalis.
[12] abbreviates: collagen-antibody (ArthriomAb)+P. gingivalis.
[13] abbreviates: P. gingivalis+ AG group, p<0.05.

“Also recorded” adds a separate entry of the source.

For `CC1(C)CC(=O)C=C(OC(=O)c2ccc(Cl)cc2)C1` [Kava-205Cl, 5,5-dimethyl-3-oxocyclohex-1-en-1-yl 4-chlorobenzoate], in the assay with TNF-[…], the “TNF-[…] secretion, z” value was −0.99.
Consider `Cc1ccc(C(=O)OC2=CC(=O)CC(C)(C)C2)cc1` [Kava-205Me, 5,5-dimethyl-3-oxocyclohex-1-en-1-yl 4-methylbenzoate], for which the “concentrations of chemokines and cytokines (IL-12, IFN-γ, MIP-1β, RANTES, IL-10, G-CSF and eotaxin)” value in assay [1] (BMM exposed to P. gingivalis, multiplex analysis) was “significantly reduced”. In addition, the “secretion of IL-12, eotaxin, RANTES, IL-10 and interferon-γ” value in [1] (BMM infected with P. gingivalis, p<0.05) is on record as “reduced”. Also, the “number of TRAP positive multinucleated cells in contact with bone (osteoclastic activity of the infiltrate)” value in assay [2] (P. gingivalis-exposed animals) is listed as “reduction”. Also, the “inflammatory infiltrate in paw tissue sections” value in [2] (animals exposed to P. gingivalis, histology) was “significant reduction”. The joint destruction entry in assay [2] (setting [12]) is recorded as “reduce efficiently”. In addition, the paw swelling result in assay [2] (setting [12]) was “reduce efficiently”. Besides, the “P. gingivalis-induced paw swelling” value in [2] (systemic administration, 32 day time point) is “significantly decreased”. The “TNF-[…] secretion” value in the assay on TNF-α [3] (BMM infected with P. gingivalis, lowest tested dose 10 µg/ml) was “reduced significantly”; with TNF-α [5] (THP-1 infected with P. gingivalis, lowest tested dose 10 µg/ml), “reduced significantly”. Also, the “TNF-α secretion induced by P. gingivalis” value in the assay on TNF-α [3] (BMM, MOI=20:1, 10 to 200 μg/ml) is “significantly and dose-dependently reduced”; in the assay on TNF-α [5] (THP-1 cells, MOI=20:1, 10 to 200 μg/ml) it was “significantly and dose-dependently reduced”. Besides, in the assay on ACP5, the ACP5 gene expression entry is reported as “reduced”. The osteoclastic activity result in assay [4] is “reduced; also recorded: trend of reduction”. Besides, in assay [4] (P. gingivalis injection), the rate of healing entry was “significantly improved; also recorded: significantly increased”. Besides, the soft tissue inflammation result in assay [4] (histological level) was “reduced significantly”. The “TNF-[…] secretion, z” value with TNF-[…] was −1.07.
With `CC1(C)CC(=O)C=C(OC(=O)c2ccccc2)C1` [Kava-241, 5,5-dimethyl-3-oxocyclohex-1-en-1-yl benzoate], the TNF-α secretion result in the assay with TNF-α [6] was “reduced”. For the same molecule, in assay [7], the clinical inflammatory score entry is listed as “reduced”, the “number of inflammatory cells within joint” value is given as “decreased” and the “number of osteoclasts within joint” value was “decreased”. In addition, the TNF-α in serum result in the assay with TNF-α [8] is listed as “decreased significantly”. Further, the “inflammation including alveolar bone loss” value in assay [9] is “prevented”. Moreover, in [10] (setting [13]), the “reduced alveolar bone loss” value came out at 36% and the reduced epithelial down-growth is 72%. Also, the “inflammatory cell counts within soft tissues” value in assay [10] (periodontitis model) is on record as “reduction”. Moreover, the fibroblasts result in [10] (periodontitis model, soft tissues) was “increase”. Further, in [11], the LITAF result was “reduced”, the “MAPKs related signal elements” value is listed as “reduced” and the TLR-2/4 result is listed as “reduced”.
